Measured values from paper PMC11558097, “Enhanced Tumor‐Targeted Delivery of Arginine‐Rich Peptides via a Positive Feedback Loop Orchestrated by Piezo1/integrin β1 Signaling Axis” (Advanced Science, 2024).
Values belong to the molecule of their own block, whether it stands above or below them. Ends that are not written are not given here.

Legend:
T24 cells [1] = test: Cellular uptake pathways, flow cytometry with endocytosis inhibitors; assay type: cell-based, human; details: serum-free media
Procedure: (§1) Flow cytometry was used to measure the fluorescence signal. Cells were seeded in a 6‐well plate at 1.0 × 10^5 cells per well and treated with R11 peptides and a series of inhibitors for 4 h, including NaN3 (active uptake inhibitor, 20 mM), methyl‐β‐cyclodextrin (MβCD: lipid raft‐mediated endocytosis inhibitor, 5 µg mL^−1), EIPA (macropinocytosis inhibitor, […]), Chlorpromazine (CPZ: clathrin‐mediated endocytosis, 5 µg mL^−1) or Dynasore (dynamin‐dependent endocytosis inhibitor, […]) in serum‐free media at 37 °C or 4 °C for 4 h, respectively. Then, the cells were trypsinized, washed, and suspended in 1 mL PBS. The fluorescence intensity of 10 000 cells was measured using a BD LSR II flow cytometer.

Piezo1 in T24 cells = test: Flow cytometry of Ca2+ signal and R11 uptake with Piezo1 agonist or inhibitor; assay type: cell-based, human; details: for effect on R11 uptake efficiency and Ca2+ release: T24 cells exposed to R11, Yoda1 10 nM, GsMTx4 2.5 nM
bladder tumors = test: Mouse orthotopic BC model, IVIS imaging after intravesical instillation; assay type: in vivo; details: female nude mice, orthotopic integrin β1-GFP BC model
Procedure: All the animal experiments were carried out following guidelines approved by the ethics committee of Xi'an Jiaotong University, Xi'an, China. Female nude mice aged 4–6 weeks were randomly sorted. After gaseous anesthesia, an intravenous indwelling needle lubricated with paraffin cotton was inserted into the bladder and fixed well. Then, the urine was removed, and the bladder was rinsed with PBS 3 times. Next, the abdominal skin was disinfected by iodine tincture and cut open for approximately 1 cm. GFP‐integrin β1 cells (1 × 10^6/mL) were injected into the bladder wall with an insulin needle under direct visualization. Last, the abdominal wall was stitched and bound with gauze. After 7 days, the effect of bladder tumor implantation was observed. After intravesical perfusion of R11 peptides or gold nanoparticles, tumor‐bearing mice were detected using an in vivo imaging system/IVIS (AniView) to take images. In addition, frozen sections of the tumors were stained with DAPI, and the fluorescence of each section of the tumor was analyzed by fluorescence microscopy.

253J cells = test: Antibody block assay (integrin α2β1 antibody), R11 uptake by flow cytometry; assay type: cell-based, human; details: Anti-integrin α2β1 5 ug/mL for 2 h
Procedure: (§2) Antibody integrin α2β1 (ab30483) used for blocking the binding motif was purchased from ABCAM. Cells were planted in the 6‐well plates and treated with Anti‐integrin α2β1 (5 ug/mL). After incubation for 2 h, the cells were treated with R11 peptides and collected. Then, the cells were trypsinized, washed, and suspended in 1 mL PBS. The fluorescence intensity of 10 000 cells was measured using flow cytometer.

T24 cells [2] = test: as above; assay type: cell-based, human; details: Anti-integrin α2β1 5 ug/mL for 2 h
Procedure: as §2

[3] = tested on: BC cell lines (5637, T24, and 253J); test: Flow cytometry and fluorescence microscopy, uptake of R11 in BC cell lines versus control cells; assay type: cell-based, human; details: BC cell lines versus Raw264.7 and SV-HUC control cells, R11 100 nM
Procedure: as §1

[4] = molecular target: T1, integrin β1 (standard of an integrin β1 ELISA kit) (UniProt P05556 21-728); test: ELISA; integrin β1 standards (0.5 µg/mL) added to the microplate wells of an integrin β1 ELISA kit, in triplicate; R11-TRITC serially diluted in PBS (0.001-10 000 nM), 2 h at 37 °C; washed; fluorescence of the bound peptide read on a microplate reader; details: both partners purified
T1 construct: integrin β1 (ITGB1), standard protein of a commercial ELISA kit; also called ITGB1; integrin β1 standards; source: bought: standard of the integrin β1 ELISA kit, Shanghai Westang Bio-Tech CO., LTD
T1 sequence (P05556 21-728): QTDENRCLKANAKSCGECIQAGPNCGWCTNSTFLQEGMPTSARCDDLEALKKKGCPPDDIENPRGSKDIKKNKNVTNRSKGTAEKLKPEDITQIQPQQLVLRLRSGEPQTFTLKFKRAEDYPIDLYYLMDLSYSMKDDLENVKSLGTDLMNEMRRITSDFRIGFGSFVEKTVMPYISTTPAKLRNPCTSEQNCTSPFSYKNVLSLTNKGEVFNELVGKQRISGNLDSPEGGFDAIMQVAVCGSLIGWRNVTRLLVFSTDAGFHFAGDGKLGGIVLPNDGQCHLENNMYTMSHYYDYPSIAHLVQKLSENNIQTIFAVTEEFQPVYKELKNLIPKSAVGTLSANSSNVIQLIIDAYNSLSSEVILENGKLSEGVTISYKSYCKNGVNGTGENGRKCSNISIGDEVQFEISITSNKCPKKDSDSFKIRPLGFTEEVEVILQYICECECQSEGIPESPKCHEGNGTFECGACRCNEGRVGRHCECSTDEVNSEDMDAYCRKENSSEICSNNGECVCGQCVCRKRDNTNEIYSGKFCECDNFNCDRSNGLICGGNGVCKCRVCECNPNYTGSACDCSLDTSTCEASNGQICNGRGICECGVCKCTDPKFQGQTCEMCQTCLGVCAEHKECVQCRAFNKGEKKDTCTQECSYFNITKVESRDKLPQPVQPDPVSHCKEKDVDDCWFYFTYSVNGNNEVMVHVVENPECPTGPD

Molecule: N=C(N)NCCC[C@H](NC(=O)[C@H](CCCNC(=N)N)NC(=O)[C@H](CCCNC(=N)N)NC(=O)[C@H](CCCNC(=N)N)NC(=O)[C@H](CCCNC(=N)N)NC(=O)[C@H](CCCNC(=N)N)NC(=O)[C@H](CCCNC(=N)N)NC(=O)[C@H](CCCNC(=N)N)NC(=O)[C@H](CCCNC(=N)N)NC(=O)[C@H](CCCNC(=N)N)NC(=O)[C@H](CCCNC(=N)N)NC(=O)CN)C(=O)O [R11, hendeca‐arginine peptide]
uptake of R11 with Dynasore (T24 cells [1]; Dynasore 80 µmol mL^−1, 4 h): inhibited uptake partly
uptake of R11 with EIPA (T24 cells [1]; EIPA (macropinocytosis inhibitor) 10 µmol mL^−1, 4 h): suppressed nearly half
uptake of R11 with NaN3 and 4 °C (T24 cells [1]; NaN3 20 mM or 4 °C, 4 h): blocked
Ca2+ signal (Piezo1 in T24 cells; T24 cells, varying R11 concentrations): increased consistently with the concentration of R11 peptides
identification of bladder tumors in vivo (IVIS) (bladder tumors): successfully identified bladder tumors in vivo but not adjacent kidney tissues
uptake of R11 peptides after blocking integrin α2β1 (253J cells): completely inhibited
uptake of R11 peptides after blocking integrin α2β1 (T24 cells [2]): completely inhibited
fluorescence signal of R11 (uptake) [3]: stronger fluorescence signal in BC cell lines compared to control cells

Molecule: GsMTx4
effect on R11 uptake efficiency and Ca2+ release (Piezo1 in T24 cells): opposite effect

Molecule: Clc1cccc(Cl)c1CSc1nnc(-c2cnccn2)s1 [Yoda1]
effect on R11 uptake efficiency and Ca2+ release (Piezo1 in T24 cells): enhanced both the uptake efficiency and Ca^2+ release

EC50 [4]: 5.97 nM
B1: hendeca-arginine peptide (R11), GRRRRRRRRRRR-TRITC (peptide)
peptide: GRRRRRRRRRRR-{TRITC}
notes: designed cell-penetrating peptide: glycine followed by 11 arginines; also called R11 peptides; arginine-rich peptides; source: synthetic peptide, synthesized and purified by GL Biochem Ltd (Shanghai, China)
